How the values were obtained:
satiated Wistar rats = assay: Food intake in satiated Wistar rats after i.c.v. administration; type: in vivo, rat; details: 10 μg i.c.v.
Description: FIG. 6 illustrates food consumption in satiated Wistar rats during the first hour of the test session (i.e., Day 2) following i.c.v. administration of vehicle (5 μL)+vehicle (5 μL), vehicle (5 μl)+R3/I5 (10 μg), R3(BΔ23-27)R/I5 (10 μg)+vehicle (5 μl), and R3(BΔ23-27)R/I5 (10 μg)+R3/I5 (10 μg) (mean±SEM; n=5-6 per group) (A).
Experimentally naïve, male Wistar rats (Charles River, Wilmington, Mass.) weighing 200-225 grams at the time of arrival were used. The animals were initially housed at two per cage and given a one-week acclimation period to the vivarium prior to i.c.v. cannula implantation. All animals had free access to food and water throughout the experiment and were not food deprived prior to behavioral testing. The animal colony was maintained at 22±2° C. during a 12-hr light/12-hr dark illumination cycle with lights on from 0600 to 1800 hours. […]
A predetermined amount of standard rat chow (Formulab Diet No. 5008, which contained 23.0% protein and 6.5% fat) was placed in the food hopper at the start of the 4 hr session(s). The amount of food remaining in the food hopper was determined by subtracting the weight of the food at 1 and 4 hrs from the initial food weight (i.e., weight of the food at the start of the session). Food crumbs detected on the floor of the apparatus were included in the determination of food weights. […]

[1] = biological target: T1, endogenous GPCR135 from rat brain slices (Rattus norvegicus, UniProt Q5Y987); assay: Autoradiography, displacement of 125I-R3/I5 binding on rat brain slices; details: at 10 nM
T1 construct: using endogenous GPCR135 from rat brain slices in autoradiographic studies; from tissue; host or cells: rat brain slices
T1 sequence (Q5Y987 1-469): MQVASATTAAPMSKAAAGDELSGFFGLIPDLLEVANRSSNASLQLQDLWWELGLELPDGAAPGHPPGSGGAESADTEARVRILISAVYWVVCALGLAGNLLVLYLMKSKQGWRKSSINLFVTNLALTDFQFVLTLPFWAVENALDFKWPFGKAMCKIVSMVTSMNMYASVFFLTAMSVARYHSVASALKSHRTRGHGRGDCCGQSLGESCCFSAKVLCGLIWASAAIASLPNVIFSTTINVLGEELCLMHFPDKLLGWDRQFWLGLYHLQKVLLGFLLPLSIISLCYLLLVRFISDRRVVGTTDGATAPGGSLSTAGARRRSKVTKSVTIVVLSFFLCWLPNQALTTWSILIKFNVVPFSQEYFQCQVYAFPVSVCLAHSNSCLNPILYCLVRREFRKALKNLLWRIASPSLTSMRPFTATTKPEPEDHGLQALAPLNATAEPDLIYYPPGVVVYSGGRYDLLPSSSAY
Description: FIG. 5 provides autoradiograms of ^125I-R3/I5 binding sites in the rat brain (A) with competition by relaxin-3 (10 nM, B) or R3(BΔ23-27)R/I5 (10 nM, C), and a dose-response curve for R3(BΔ23-27)R/I5 as the competitor in the binding assay on rat brain slices (D). A dose-response curve for human relaxin-3 is included for comparison (D). Nonspecific binding was determined using 1 μM unlabeled relaxin-3.
R3(BΔ23-27)R/I5 peptide was evaluated pharmacologically using endogenous GPCR135 from rat brain slices in autoradiographic studies as described by Sutton et al., 2004. Briefly, ^125I-R3/I5 was applied in a binding buffer to rat brain slices. Unlabeled human relaxin-3 or R3(BΔ23-27)R/I5 was used at various concentrations as competitors to displace GPCR135 binding of ^125I-R3/I5.

Row | displacement of 125I-R3/I5 binding sites in rat brain sections [1] | Substance | total food intake over 4 hours (satiated Wistar rats; 4 hours) | food intake, first hour (satiated Wistar rats; first hour)
1 |  | R3/I5: Chimeric peptide of relaxin-3 B-chain (SEQ ID NO:12) and INSL5 A-chain (SEQ ID NO:19); selective GPCR135 agonist (beta RAAPYGVRLCGREFIRAVIFTCGGSRW; alpha EDLQTLCCTDGCSMTDLSALC; INSL5 A-chain; listed as Homo Sapiens) | food intake was stimulated | food intake was stimulated
2 | Full displacement | Relaxin-3: Wild type human relaxin-3, B-chain SEQ ID NO:12, A-chain SEQ ID NO:13; positive control |  | 

Source: patent US8299028B2, “Chimeric peptide antagonist for GPCR135 or GPCR142” (Janssen Pharmaceutica NV, priority 2007, dated 2012)
